{"source": "ChEMBL document CHEMBL3885881", "about": "“DrugMatrix”", "species_on_record": "Rattus norvegicus", "experiment": "DrugMatrix - Regimen: Daily Repeat", "type": "toxicity, organism-based, Sprague-Dawley", "parameters": "regimen Daily Repeat, gender Male, age 6-8 weeks", "details": "in vivo, po, 20 mg/kg, route oral GAVAGE, dose level Low, vehicle .5 % CMC; for ABSOLUTE BASOPHIL / ABSOLUTE EOSINOPHIL / ABSOLUTE LYMPHOCYTE / ABSOLUTE MONOCYTE / ABSOLUTE SEGMENTED NEUTROPHIL / BASOPHIL / EOSINOPHIL / ERYTHROCYTE COUNT / HEMATOCRIT / HEMOGLOBIN / LEUKOCYTE COUNT / LYMPHOCYTE / MEAN CORPUSCULAR HEMOGLOBIN / MEAN CORPUSCULAR HEMOGLOBIN CONCENTRATION / MEAN CORPUSCULAR VOLUME / MONOCYTE / NEUTROPHIL / NUCLEATED RED BLOOD CELLS / PLATELET COUNT: tissue Blood; for ALANINE AMINOTRANSFERASE / ALKALINE PHOSPHATASE / ASPARTATE AMINOTRANSFERASE / BLOOD UREA NITROGEN / CARBON DIOXIDE / CHLORIDE / CHOLESTEROL / CREATINE PHOSPHOKINASE / CREATININE / GLUCOSE / LACTATE DEHYDROGENASE / LIPASE / PHOSPHORUS / POTASSIUM / SODIUM / TOTAL BILIRUBIN / TOTAL PROTEIN / URIC ACID: tissue Plasma"}
{"smiles": "O=C1CC2(CCCC2)CC(=O)N1CCCCN1CCN(c2ncccn2)CC1", "note": "[BUSPIRONE]", "values": [{"measurement": "ABSOLUTE BASOPHIL", "setting": "72 h, time 3 day", "value": 0, "unit": "CELLS/uL"}, {"measurement": "ABSOLUTE EOSINOPHIL", "setting": "72 h, time 3 day", "value": 51, "unit": "CELLS/uL"}, {"measurement": "ABSOLUTE LYMPHOCYTE", "setting": "72 h, time 3 day", "value": 11615, "unit": "CELLS/uL"}, {"measurement": "ABSOLUTE MONOCYTE", "setting": "72 h, time 3 day", "value": 151.33, "unit": "CELLS/uL"}, {"measurement": "ABSOLUTE SEGMENTED NEUTROPHIL", "setting": "72 h, time 3 day", "value": 1416, "unit": "CELLS/uL"}, {"measurement": "BASOPHIL", "setting": "72 h, time 3 day", "value": 0, "unit": "%"}, {"measurement": "EOSINOPHIL", "setting": "72 h, time 3 day", "value": 0.33, "unit": "%"}, {"measurement": "ERYTHROCYTE COUNT", "setting": "72 h, time 3 day", "value": 5.69, "unit": "x10E6/uL"}, {"measurement": "HEMATOCRIT", "setting": "72 h, time 3 day", "value": 36.17, "unit": "%"}, {"measurement": "HEMOGLOBIN", "setting": "72 h, time 3 day", "value": 14.1, "unit": "G/DL"}, {"measurement": "LEUKOCYTE COUNT", "setting": "72 h, time 3 day", "value": 13.23, "unit": "x10E3/uL"}, {"measurement": "LYMPHOCYTE", "setting": "72 h, time 3 day", "value": 87.67, "unit": "%"}, {"measurement": "MEAN CORPUSCULAR HEMOGLOBIN", "setting": "72 h, time 3 day", "value": 24.73, "unit": "pg"}, {"measurement": "MEAN CORPUSCULAR HEMOGLOBIN CONCENTRATION", "setting": "72 h, time 3 day", "value": 39, "unit": "G/DL"}, {"measurement": "MEAN CORPUSCULAR VOLUME", "setting": "72 h, time 3 day", "value": 63.57, "unit": "fL"}, {"measurement": "MONOCYTE", "setting": "72 h, time 3 day", "value": 1, "unit": "%"}, {"measurement": "NEUTROPHIL", "setting": "72 h, time 3 day", "value": 11, "unit": "%"}, {"measurement": "NUCLEATED RED BLOOD CELLS", "setting": "72 h, time 3 day", "value": "0.33 /100WBC"}, {"measurement": "PLATELET COUNT", "setting": "72 h, time 3 day", "value": 1072.33, "unit": "x10E3/uL"}, {"measurement": "ALANINE AMINOTRANSFERASE", "setting": "72 h, time 3 day", "value": 59.33, "unit": "u/L"}, {"measurement": "ALKALINE PHOSPHATASE", "setting": "72 h, time 3 day", "value": 480, "unit": "u/L"}, {"measurement": "ASPARTATE AMINOTRANSFERASE", "setting": "72 h, time 3 day", "value": 97, "unit": "u/L"}, {"measurement": "BLOOD UREA NITROGEN", "setting": "72 h, time 3 day", "value": 15, "unit": "mg/dL"}, {"measurement": "CARBON DIOXIDE", "setting": "72 h, time 3 day", "value": 23, "unit": "mmol/L"}, {"measurement": "CHLORIDE", "setting": "72 h, time 3 day", "value": 102, "unit": "MEQ/L"}, {"measurement": "CHOLESTEROL", "setting": "72 h, time 3 day", "value": 82.33, "unit": "mg/dL"}, {"measurement": "CREATINE PHOSPHOKINASE", "setting": "72 h, time 3 day", "value": 412, "unit": "u/L"}, {"measurement": "CREATININE", "setting": "72 h, time 3 day", "value": 0.23, "unit": "mg/dL"}, {"measurement": "GLUCOSE", "setting": "72 h, time 3 day", "value": 167, "unit": "mg/dL"}, {"measurement": "LACTATE DEHYDROGENASE", "setting": "72 h, time 3 day", "value": 304.33, "unit": "u/L"}, {"measurement": "LIPASE", "setting": "72 h, time 3 day", "value": 9, "unit": "u/L"}, {"measurement": "PHOSPHORUS", "setting": "72 h, time 3 day", "value": 13.47, "unit": "mg/dL"}, {"measurement": "POTASSIUM", "setting": "72 h, time 3 day", "value": 6.53, "unit": "MEQ/L"}, {"measurement": "SODIUM", "setting": "72 h, time 3 day", "value": 146.87, "unit": "MEQ/L"}, {"measurement": "TOTAL BILIRUBIN", "setting": "72 h, time 3 day", "value": 0.2, "unit": "mg/dL"}, {"measurement": "TOTAL PROTEIN", "setting": "72 h, time 3 day", "value": 6, "unit": "G/DL"}, {"measurement": "URIC ACID", "setting": "72 h, time 3 day", "value": 1.9, "unit": "mg/dL"}, {"measurement": "ABSOLUTE BASOPHIL", "setting": "120 h, time 5 day", "value": 0, "unit": "CELLS/uL"}, {"measurement": "ABSOLUTE EOSINOPHIL", "setting": "120 h, time 5 day", "value": 106.67, "unit": "CELLS/uL"}, {"measurement": "ABSOLUTE LYMPHOCYTE", "setting": "120 h, time 5 day", "value": 13027.67, "unit": "CELLS/uL"}, {"measurement": "ABSOLUTE MONOCYTE", "setting": "120 h, time 5 day", "value": 125.67, "unit": "CELLS/uL"}, {"measurement": "ABSOLUTE SEGMENTED NEUTROPHIL", "setting": "120 h, time 5 day", "value": 973.33, "unit": "CELLS/uL"}, {"measurement": "BASOPHIL", "setting": "120 h, time 5 day", "value": 0, "unit": "%"}, {"measurement": "EOSINOPHIL", "setting": "120 h, time 5 day", "value": 0.67, "unit": "%"}, {"measurement": "ERYTHROCYTE COUNT", "setting": "120 h, time 5 day", "value": 5.35, "unit": "x10E6/uL"}, {"measurement": "HEMATOCRIT", "setting": "120 h, time 5 day", "value": 34.23, "unit": "%"}, {"measurement": "HEMOGLOBIN", "setting": "120 h, time 5 day", "value": 13.57, "unit": "G/DL"}, {"measurement": "LEUKOCYTE COUNT", "setting": "120 h, time 5 day", "value": 14.23, "unit": "x10E3/uL"}, {"measurement": "LYMPHOCYTE", "setting": "120 h, time 5 day", "value": 91.67, "unit": "%"}, {"measurement": "MEAN CORPUSCULAR HEMOGLOBIN", "setting": "120 h, time 5 day", "value": 25.4, "unit": "pg"}, {"measurement": "MEAN CORPUSCULAR HEMOGLOBIN CONCENTRATION", "setting": "120 h, time 5 day", "value": 39.67, "unit": "G/DL"}, {"measurement": "MEAN CORPUSCULAR VOLUME", "setting": "120 h, time 5 day", "value": 64.03, "unit": "fL"}, {"measurement": "MONOCYTE", "setting": "120 h, time 5 day", "value": 1, "unit": "%"}, {"measurement": "NEUTROPHIL", "setting": "120 h, time 5 day", "value": 6.67, "unit": "%"}, {"measurement": "NUCLEATED RED BLOOD CELLS", "setting": "120 h, time 5 day", "value": "0 /100WBC"}, {"measurement": "PLATELET COUNT", "setting": "120 h, time 5 day", "value": 1461, "unit": "x10E3/uL"}, {"measurement": "ALANINE AMINOTRANSFERASE", "setting": "120 h, time 5 day", "value": 42.33, "unit": "u/L"}, {"measurement": "ALKALINE PHOSPHATASE", "setting": "120 h, time 5 day", "value": 354, "unit": "u/L"}, {"measurement": "ASPARTATE AMINOTRANSFERASE", "setting": "120 h, time 5 day", "value": 77, "unit": "u/L"}, {"measurement": "BLOOD UREA NITROGEN", "setting": "120 h, time 5 day", "value": 14.67, "unit": "mg/dL"}, {"measurement": "CARBON DIOXIDE", "setting": "120 h, time 5 day", "value": 24.33, "unit": "mmol/L"}, {"measurement": "CHLORIDE", "setting": "120 h, time 5 day", "value": 102.33, "unit": "MEQ/L"}, {"measurement": "CHOLESTEROL", "setting": "120 h, time 5 day", "value": 67, "unit": "mg/dL"}, {"measurement": "CREATINE PHOSPHOKINASE", "setting": "120 h, time 5 day", "value": 241.33, "unit": "u/L"}, {"measurement": "CREATININE", "setting": "120 h, time 5 day", "value": 0.14, "unit": "mg/dL"}, {"measurement": "GLUCOSE", "setting": "120 h, time 5 day", "value": 154, "unit": "mg/dL"}, {"measurement": "LACTATE DEHYDROGENASE", "setting": "120 h, time 5 day", "value": 200.67, "unit": "u/L"}, {"measurement": "LIPASE", "setting": "120 h, time 5 day", "value": 8.33, "unit": "u/L"}, {"measurement": "PHOSPHORUS", "setting": "120 h, time 5 day", "value": 14.3, "unit": "mg/dL"}, {"measurement": "POTASSIUM", "setting": "120 h, time 5 day", "value": 7.16, "unit": "MEQ/L"}, {"measurement": "SODIUM", "setting": "120 h, time 5 day", "value": 144.93, "unit": "MEQ/L"}, {"measurement": "TOTAL BILIRUBIN", "setting": "120 h, time 5 day", "value": 0.23, "unit": "mg/dL"}, {"measurement": "TOTAL PROTEIN", "setting": "120 h, time 5 day", "value": 5.63, "unit": "G/DL"}, {"measurement": "URIC ACID", "setting": "120 h, time 5 day", "value": 1.97, "unit": "mg/dL"}]}
